# According to ChEMBL document CHEMBL1135367, “Evaluation of isotryptamine derivatives at 5-HT(2) serotonin receptors” (Bioorg Med Chem Lett, 2002):
# Biological target: T1, 5-hydroxytryptamine receptor 2A (Homo sapiens, UniProt P28223)
# Assay: Tested for binding affinity towards 5-hydroxytryptamine 2A receptor
# T1 sequence (P28223 whole entry): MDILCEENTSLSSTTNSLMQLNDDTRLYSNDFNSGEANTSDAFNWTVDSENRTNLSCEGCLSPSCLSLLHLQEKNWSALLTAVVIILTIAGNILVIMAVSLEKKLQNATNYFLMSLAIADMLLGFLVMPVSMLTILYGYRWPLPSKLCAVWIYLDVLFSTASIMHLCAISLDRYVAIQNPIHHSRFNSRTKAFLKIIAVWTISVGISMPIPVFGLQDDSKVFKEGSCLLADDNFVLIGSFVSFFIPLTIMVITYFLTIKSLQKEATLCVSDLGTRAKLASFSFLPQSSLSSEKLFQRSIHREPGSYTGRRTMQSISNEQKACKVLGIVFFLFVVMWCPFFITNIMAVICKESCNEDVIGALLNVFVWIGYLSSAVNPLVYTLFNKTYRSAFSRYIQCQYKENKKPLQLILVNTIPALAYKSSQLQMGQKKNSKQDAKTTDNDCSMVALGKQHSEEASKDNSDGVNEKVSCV
row,Compound,Ki
1,CC(N)Cn1ccc2ccc3ccccc3c21 (stereo not given),38 nM
2,CC(CN)n1ccc2ccc3ccccc3c21 (stereo not given),4300 nM
3,CC(N)Cc1c[nH]c2ccc3ccccc3c12 (stereo not given),3 nM

# Biological target: T2, 5-hydroxytryptamine receptor 2C (Homo sapiens, UniProt P28335)
# T2 sequence (P28335 whole entry): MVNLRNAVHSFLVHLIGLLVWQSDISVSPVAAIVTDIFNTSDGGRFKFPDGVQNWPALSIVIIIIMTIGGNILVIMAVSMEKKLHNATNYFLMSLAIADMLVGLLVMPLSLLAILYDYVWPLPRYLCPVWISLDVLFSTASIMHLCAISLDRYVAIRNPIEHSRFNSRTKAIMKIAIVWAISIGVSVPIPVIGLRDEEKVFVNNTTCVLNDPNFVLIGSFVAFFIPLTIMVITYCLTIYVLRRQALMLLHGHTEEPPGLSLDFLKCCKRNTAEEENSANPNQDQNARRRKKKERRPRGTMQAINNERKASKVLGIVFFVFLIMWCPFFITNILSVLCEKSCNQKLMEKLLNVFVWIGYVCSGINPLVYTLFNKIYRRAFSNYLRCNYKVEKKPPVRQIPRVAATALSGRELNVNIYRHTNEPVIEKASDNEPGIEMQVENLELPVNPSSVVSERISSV
# Assay: Tested for binding affinity towards human 5-hydroxytryptamine 2C receptor using [3H]DOB as radioligand
row,Compound,Ki
1,C[C@H](N)Cn1ccc2cc(F)c(F)cc21,3.9 nM

# Biological target: T2, 5-hydroxytryptamine receptor 2C
# Assay: Tested for binding affinity towards 5-HT2c receptor
row,Compound,Ki
1,Cc1c2n(c3ccc(Cl)cc13)CCNC2,450 nM

# Biological target: T2, 5-hydroxytryptamine receptor 2C
# Assay: Tested for binding affinity towards human 5-hydroxytryptamine 2C receptor using [3H]5-HT as radioligand
row,Compound,Ki
1,C[C@H](N)Cn1ccc2cc(F)c(F)cc21,3.8 nM

# Biological target: T1, 5-hydroxytryptamine receptor 2A
# Assay: Displacement of [3H]DOB from human 5-hydroxytryptamine 2A receptor
row,Compound,Ki
1,COc1cccc2cc3n(c12)CCNC3,300 nM
2,c1ccc2c(c1)nc1n2CCNC1,> 10000 nM
3,CN(C)CCn1ccc2cc(F)c(F)cc21,230 nM
4,Clc1ccc2cc3n(c2c1)CCNC3,80 nM
5,COc1c2n(c3ccc(Cl)cc13)CCNC2,60 nM
6,Clc1cccc2cc3n(c12)CCNC3,330 nM
7,Clc1ccc2c(c1)cc1n2CCNC1,320 nM
8,COc1ccc2c(c1)cc1n2CCNC1,930 nM
9,COc1ccc2c(ccn2CCN(C)C)c1,> 10000 nM
10,COc1ccc2cc3n(c2c1)CCNC3,1300 nM
11,c1ccc2c(c1)cc1n2CCNC1,635 nM
12,CN(C)CCn1ccc2ccccc21,650 nM

# Biological target: T2, 5-hydroxytryptamine receptor 2C
# Assay: Binding affinity towards human 5-hydroxytryptamine 2C receptor.
row,Compound,Ki
1,COc1cccc2cc3n(c12)CCNC3,1990 nM
2,c1ccc2c(c1)nc1n2CCNC1,> 10000 nM
3,CC(N)Cn1ccc2ccc3ccccc3c21 (stereo not given),42 nM
4,CN(C)CCn1ccc2cc(F)c(F)cc21,300 nM
5,Clc1ccc2cc3n(c2c1)CCNC3,560 nM
6,COc1ccc2ccn(CCN(C)C)c2c1,490 nM
7,COc1c2n(c3ccc(Cl)cc13)CCNC2,330 nM
8,Clc1cccc2cc3n(c12)CCNC3,520 nM
9,CC(CN)n1ccc2ccc3ccccc3c21 (stereo not given),> 10000 nM
10,Clc1ccc2c(c1)cc1n2CCNC1,1460 nM
11,COc1ccc2c(c1)cc1n2CCNC1,9930 nM
12,COc1ccc2c(ccn2CCN(C)C)c1,> 10000 nM
13,COc1ccc2cc3n(c2c1)CCNC3,5160 nM
14,CC(N)Cc1c[nH]c2ccc3ccccc3c12 (stereo not given),9 nM
15,C[C@H](N)Cn1ccc2cc(F)c(F)cc21,85 nM
16,c1ccc2c(c1)cc1n2CCNC1,4780 nM
17,CN(C)CCn1ccc2ccccc21,720 nM

# Biological target: T2, 5-hydroxytryptamine receptor 2C
# Assay: Tested for binding affinity towards human 5-hydroxytryptamine 2C receptor using [3H]mesulergine as radioligand
row,Compound,Ki
1,C[C@H](N)Cn1ccc2cc(F)c(F)cc21,85 nM

# Biological target: T1, 5-hydroxytryptamine receptor 2A
# Assay: Displacement of [3H]ketanserin from human 5-hydroxytryptamine 2A receptor
row,Compound,Ki
1,COc1cccc2cc3n(c12)CCNC3,1000 nM
2,c1ccc2c(c1)nc1n2CCNC1,> 10000 nM
3,CN(C)CCn1ccc2cc(F)c(F)cc21,640 nM
4,Clc1ccc2cc3n(c2c1)CCNC3,58 nM
5,COc1ccc2ccn(CCN(C)C)c2c1,1040 nM
6,COc1c2n(c3ccc(Cl)cc13)CCNC2,130 nM
7,Clc1cccc2cc3n(c12)CCNC3,630 nM
8,Clc1ccc2c(c1)cc1n2CCNC1,1670 nM
9,COc1ccc2c(c1)cc1n2CCNC1,5830 nM
10,Cc1c2n(c3ccc(Cl)cc13)CCNC2,1250 nM
11,COc1ccc2c(ccn2CCN(C)C)c1,> 10000 nM
12,COc1ccc2cc3n(c2c1)CCNC3,5190 nM
13,c1ccc2c(c1)cc1n2CCNC1,1040 nM
14,CN(C)CCn1ccc2ccccc21,600 nM

# Biological target: T1, 5-hydroxytryptamine receptor 2A
# Assay: Tested for binding affinity towards human 5-hydroxytryptamine 2A receptor using [3H]DOB as radioligand
row,Compound,Ki
1,C[C@H](N)Cn1ccc2cc(F)c(F)cc21,39 nM

# Biological target: Serotonin 2 receptors; 5-HT2a & 5-HT2c (Homo sapiens) (UniProt P28223+P28335)
# Assay: Relative affinity for human 5-HT2C and 5-HT2A receptors
# Format: protein assay
# Serotonin 2 receptors; 5-HT2a & 5-HT2c (Homo sapiens), sequence (P28223 whole entry, looked up, one chain of several): as the sequence (P28223 whole entry) above
row,Compound,Selectivity
1,COc1cccc2cc3n(c12)CCNC3,6.6
2,CN(C)CCn1ccc2cc(F)c(F)cc21,1.3
3,Clc1ccc2cc3n(c2c1)CCNC3,7
4,COc1c2n(c3ccc(Cl)cc13)CCNC2,5.5
5,Clc1cccc2cc3n(c12)CCNC3,1.6
6,Clc1ccc2c(c1)cc1n2CCNC1,4.6
7,COc1ccc2c(c1)cc1n2CCNC1,10.7
8,COc1ccc2cc3n(c2c1)CCNC3,4
9,C[C@H](N)Cn1ccc2cc(F)c(F)cc21,5.7
10,c1ccc2c(c1)cc1n2CCNC1,7.5
11,CN(C)CCn1ccc2ccccc21,1.1

# Biological target: T3, 5-hydroxytryptamine receptor 2A (Rattus norvegicus, UniProt P14842)
# Assay: Tested for binding affinity towards rat 5-hydroxytryptamine 2A receptor using [3H]DOB as radioligand
# T3 sequence (P14842 whole entry): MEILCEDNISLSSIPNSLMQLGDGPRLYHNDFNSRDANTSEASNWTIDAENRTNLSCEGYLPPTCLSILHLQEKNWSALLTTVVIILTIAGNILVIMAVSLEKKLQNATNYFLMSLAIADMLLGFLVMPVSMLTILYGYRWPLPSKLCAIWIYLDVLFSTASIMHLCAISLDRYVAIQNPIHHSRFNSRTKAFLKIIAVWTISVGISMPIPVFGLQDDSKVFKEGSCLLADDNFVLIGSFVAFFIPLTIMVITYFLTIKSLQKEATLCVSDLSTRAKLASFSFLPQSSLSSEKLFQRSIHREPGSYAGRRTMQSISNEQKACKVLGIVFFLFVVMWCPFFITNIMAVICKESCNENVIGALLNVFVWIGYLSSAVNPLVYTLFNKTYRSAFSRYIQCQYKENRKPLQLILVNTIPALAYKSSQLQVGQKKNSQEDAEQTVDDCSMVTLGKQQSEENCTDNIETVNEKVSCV
row,Compound,Ki
1,C[C@H](N)Cn1ccc2cc(F)c(F)cc21,15 nM

# Biological target: T1, 5-hydroxytryptamine receptor 2A
# Assay: Tested for binding affinity towards human 5-hydroxytryptamine 2A receptor using [3H]5-HT as radioligand
row,Compound,Ki
1,C[C@H](N)Cn1ccc2cc(F)c(F)cc21,12 nM

# Biological target: T3, 5-hydroxytryptamine receptor 2A
# Assay: Tested for binding affinity towards rat 5-hydroxytryptamine 2A receptor using [3H]ketanserin as radioligand
row,Compound,Ki
1,C[C@H](N)Cn1ccc2cc(F)c(F)cc21,320 nM
